Among the test systems are 786-0; CAKI-1; CCRF-CEM; EKVX; HT-29; IGROV-1; KM12; M14; MCF7; NCI-H226; NCI-H23; OVCAR-8; PC-3; SK-MEL-2; SNB-75; TK-10; UACC-257; UACC-62; BT-549.
Holding throughout (assay): DTP human tumour cell line panel, 48 h

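All cell lines were grown in 96-well plates and treated with compound for 48 hours. GI50 = concentration required for 50% inhibition of growth.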 Activity calls are given as the source filed them. Rule as the data show it: active = GI50 up to about 1.1 µM and inactive = higher. Some results are limits rather than exact numbers.

Take `COc1ccc(CC2C3=C(CCN2C(=O)C2CCC2)CC2(CC3)OCCO2)cc1O` (stereo not given): the GI50 (usually the concentration at which growth is held to half of that of the control) in the assay on 786-0 is 35.2 µM (inactive); with CAKI-1 it was 36.6 µM (inactive); in the assay on CCRF-CEM, 35.2 µM (inactive); in the assay on EKVX it was 38.8 µM (inactive); with HT-29 it was 29 µM (inactive); with IGROV-1, 35.1 µM (inactive). Also, the GI50 in the assay on KM12 was 31.3 µM (inactive); in the assay on M14, 21 µM (inactive); with MCF7, 28.6 µM (inactive); in the assay on NCI-H226, 34.8 µM (inactive); in the assay with NCI-H23 it was 19.2 µM (inactive); with OVCAR-8, 58.5 µM (inactive). In addition, the GI50 was 31.3 µM (inactive) in the assay on PC-3; 49.3 µM (inactive) in the assay with SK-MEL-2; 15 µM (inactive) with SNB-75; 30.7 µM (inactive) in the assay with TK-10; 30.5 µM (inactive) with UACC-257; 46.1 µM (inactive) in the assay with UACC-62.
As for `CO/C(=N\N=C\c1ccc(OC)c(OC)c1)c1ccncc1`, the GI50 with 786-0, in the assay with BT-549, in the assay with CAKI-1, with CCRF-CEM, with EKVX and with IGROV-1 was > 10 µM (inactive) in each case. Further, the GI50 with KM12, with M14, with MCF7, in the assay on NCI-H226, in the assay on NCI-H23 and in the assay with OVCAR-8 was > 10 µM (inactive) each time. For the same compound, the GI50 in the assay on SNB-75, in the assay on TK-10, in the assay on UACC-257 and with UACC-62 was > 10 µM (inactive) each time.
Take `c1ccc(NC2(c3nnnn3C3CCCCC3)CCNCC2)cc1`: the GI50 in the assay with 786-0 is 15 µM (inactive); with CCRF-CEM it was 20.4 µM (inactive); in the assay on EKVX it was 20.7 µM (inactive); with HT-29 it was 16.7 µM (inactive); in the assay on IGROV-1 it was 32.7 µM (inactive); in the assay on KM12 it was 15.3 µM (inactive). In addition, the GI50 is 17.6 µM (inactive) in the assay on M14; 18.5 µM (inactive) in the assay with MCF7; 17.9 µM (inactive) in the assay with NCI-H226; 23.8 µM (inactive) in the assay with NCI-H23; 28.6 µM (inactive) with OVCAR-8; 14.9 µM (inactive) with SNB-75. Also, the GI50 with TK-10 was 16.8 µM (inactive); in the assay with UACC-257, 15.7 µM (inactive); in the assay with UACC-62 it was 18.3 µM (inactive).
As for `Cn1c(-c2ccc(-c3cc(-c4cccs4)c(-c4cccs4)n3C)cc2)cc(-c2cccs2)c1-c1cccs1`, the GI50 in the assay with 786-0, with CAKI-1, in the assay on CCRF-CEM, in the assay with EKVX, with HT-29 and in the assay with IGROV-1 was > 100 µM (inactive) throughout. Also, the GI50 with KM12, in the assay with M14, in the assay with MCF7, in the assay on NCI-H226, with OVCAR-8 and with PC-3 was > 100 µM (inactive) each time. For the same compound, the GI50 in the assay on SK-MEL-2, in the assay with SNB-75, with TK-10, in the assay on UACC-257 and with UACC-62 was > 100 µM (inactive) each time.
Take `Clc1cc(C(c2cc(Cl)sc2Cl)c2cc(Cl)sc2Cl)c(Cl)s1`: the GI50 in the assay with 786-0, in the assay on CAKI-1, in the assay on CCRF-CEM, with EKVX, in the assay on HT-29 and in the assay on IGROV-1 was > 100 µM (inactive) each time. Moreover, the GI50 with KM12, in the assay on M14, in the assay on MCF7, in the assay with NCI-H226, in the assay on NCI-H23 and in the assay with OVCAR-8 was > 100 µM (inactive) throughout. Also, the GI50 in the assay with PC-3, in the assay on SK-MEL-2, in the assay on SNB-75, in the assay with TK-10, in the assay on UACC-257 and in the assay with UACC-62 was > 100 µM (inactive) each time.
Regarding `CCOC1OCCCC1Br` (stereo not given), the GI50 with 786-0, in the assay with CAKI-1, in the assay with CCRF-CEM, with EKVX, with HT-29 and in the assay with IGROV-1 was > 100 µM (inactive) each time. In addition, the GI50 in the assay with KM12, in the assay with M14, with MCF7, in the assay on NCI-H226, in the assay with NCI-H23 and with OVCAR-8 was > 100 µM (inactive) in each case. The GI50 is > 100 µM (inactive) in the assay with PC-3; > 100 µM (inactive) in the assay on SK-MEL-2; > 100 µM (inactive) with SNB-75; > 100 µM (inactive) with TK-10; > 100 µM (inactive) in the assay on UACC-257; 72.1 µM (inactive) in the assay on UACC-62.
With `C/C(=N/NC(=S)Nc1ccc(Cl)cc1)c1cccc(/C(C)=N\NC(=S)Nc2ccc(Cl)cc2)n1`, the GI50 is 0.594 µM (active) in the assay with 786-0; 3.72 µM (inactive) in the assay with CAKI-1; 1.68 µM (inactive) with CCRF-CEM; 5.45 µM (inactive) in the assay on EKVX; 10.2 µM (inactive) in the assay on HT-29; 1.74 µM (inactive) in the assay on IGROV-1. Besides, the GI50 in the assay on KM12 was 3.66 µM (inactive); with M14, 1.79 µM (inactive); in the assay on MCF7, 1.93 µM (inactive); in the assay on NCI-H226, 3.54 µM (inactive); in the assay with NCI-H23, 13.2 µM (inactive); in the assay on OVCAR-8, 1.85 µM (inactive). Further, the GI50 in the assay with PC-3 is 3.47 µM (inactive); in the assay on SK-MEL-2, 5.41 µM (inactive); in the assay on SNB-75, 7.48 µM (inactive); in the assay on TK-10, 2.81 µM (inactive); in the assay on UACC-257, 4.5 µM (inactive); in the assay with UACC-62, 3.48 µM (inactive).
`O=C(O)CCNS(=O)(=O)c1ccc2ccccc2c1`: the GI50 in the assay on 786-0, in the assay on CAKI-1, in the assay on CCRF-CEM, with EKVX, in the assay on HT-29 and in the assay with IGROV-1 was > 100 µM (inactive) in each case. The GI50 in the assay with KM12, in the assay on M14, in the assay with NCI-H226, with NCI-H23, in the assay on OVCAR-8 and in the assay with SK-MEL-2 was > 100 µM (inactive) throughout. The GI50 with SNB-75, with TK-10, in the assay with UACC-257 and in the assay with UACC-62 was > 100 µM (inactive) in each case.
`C/C(=C\c1ccc2c(c1)OCO2)[N+](=O)[O-]`: the GI50 in the assay with 786-0 was 1.56 µM (inactive); with CAKI-1, 2.28 µM (inactive); in the assay on CCRF-CEM it was < 0.01 µM (active); in the assay with EKVX, 4.08 µM (inactive); with HT-29, 2.98 µM (inactive); with IGROV-1, 2.34 µM (inactive). The GI50 is 1.54 µM (inactive) in the assay with KM12; 3.65 µM (inactive) with M14; 0.205 µM (active) in the assay on MCF7; 3.84 µM (inactive) with NCI-H226; 2.46 µM (inactive) in the assay on NCI-H23; 2.77 µM (inactive) in the assay on OVCAR-8. Further, the GI50 in the assay on PC-3 was 2.64 µM (inactive); with SK-MEL-2, 2.99 µM (inactive); in the assay with SNB-75, 5.16 µM (inactive); with TK-10 it was 2.45 µM (inactive); in the assay with UACC-257, 2.43 µM (inactive); in the assay on UACC-62, 2.01 µM (inactive).
`CCN(CC)CC1CCCCN1CC(=O)N1c2ccc(Br)cc2C(=O)Nc2cccnc21` (stereo not given): the GI50 in the assay with 786-0, in the assay with CAKI-1, in the assay on CCRF-CEM, in the assay with EKVX, in the assay with HT-29 and in the assay on IGROV-1 was > 100 µM (inactive) throughout. The GI50 in the assay on KM12, in the assay with M14, in the assay on MCF7, in the assay on NCI-H226, in the assay on NCI-H23 and with OVCAR-8 was > 100 µM (inactive) throughout. The GI50 in the assay with PC-3 was > 100 µM (inactive); in the assay on SK-MEL-2, > 100 µM (inactive); in the assay with SNB-75 it was 12.3 µM (inactive); in the assay with TK-10, > 100 µM (inactive); in the assay with UACC-257 it was 74.8 µM (inactive); with UACC-62, > 100 µM (inactive).
For `O=C1OC([C@H](O)c2cccnc2)c2ccccc21` (stereo not given in full), the GI50 in the assay on 786-0, in the assay with CAKI-1, in the assay on CCRF-CEM, in the assay on EKVX, in the assay with HT-29 and in the assay with IGROV-1 was > 10 µM (inactive) each time. Besides, the GI50 in the assay on KM12, in the assay with M14, with MCF7, in the assay with NCI-H226, in the assay with NCI-H23 and in the assay on OVCAR-8 was > 10 µM (inactive) each time. In addition, the GI50 in the assay on PC-3, in the assay with SK-MEL-2, with SNB-75, with TK-10, in the assay with UACC-257 and with UACC-62 was > 10 µM (inactive) in each case.

Values taken from ChEMBL document CHEMBL1201862, “PubChem BioAssay data set” (2004).
